Data published in ChEMBL document CHEMBL5512666, “Selenization of Small Molecule Drugs: A New Player on the Board” (J Med Chem, 2024).

Assays:
PANC-1 = experiment: Cytotoxicity against human PANC-1 cells assessed as reduction in cell viability incubated for 48 hrs by MTT assay; assay type: functional, cell-based; settings: PANC-1, 48 h
MIA PaCa-2 = experiment: Cytotoxicity against human MIA PaCa-2 cells assessed as reduction in cell viability incubated for 48 hrs by MTT assay; assay type: functional, cell-based; settings: MIA PaCa-2, 48 h
BXPC-3 = experiment: Cytotoxicity against human BXPC-3 cells assessed as reduction in cell viability incubated for 48 hrs by MTT assay; assay type: functional, cell-based; settings: BXPC-3, 48 h
[1] = Cytotoxicity against MEF cells assessed as reduction in cell viability incubated for 48 hrs by MTT assay; assay type: toxicity, cell-based; settings: mouse
LNCaP = experiment: Cytotoxicity against human LNCaP cells incubated for 48 hrs; assay type: functional, cell-based
PC-3 = experiment: Cytotoxicity against human PC-3 cells incubated for 48 hrs; assay type: functional, cell-based; settings: PC-3, 48 h
DU-145 = experiment: Cytotoxicity against human DU-145 cells incubated for 48 hrs; assay type: functional, cell-based; settings: DU-145, 48 h

Compound: CC(=O)Oc1ccccc1C(=O)/N=C1\[Se]CCN1C(=O)c1ccccc1OC(C)=O
- IC50 (PANC-1): 740 nM
- IC50 (MIA PaCa-2): 3.03 µM
- IC50 (BXPC-3): 2090 nM
- IC50 at 48 h [1]: > 50 µM
- IC50 (LNCaP): 2340 nM
- IC50 (PC-3): 1700 nM
- IC50 (DU-145): 520 nM
